From patent publication US10508104B2, “6-hydroxy-5-(phenyl/heteroarylsulfonyl)pyrimidin-4(1H)-one as APJ agonists” (Bristol-Myers Squibb Company, priority 2016, dated 2019)

Target: human APJ receptor (Homo sapiens (Human), UniProt P35414)
Assay: Intracellular cAMP accumulation assay (APJ hcAMP, HTRF)
Assay type: cell-based
Details: human APJ, cAMP accumulation; read-out: Human APJ cAMP EC50 Potency range
Outline: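 HEK293 cells stably expressing human APJ, 5,000 per well, incubated 30 min at rt with compound, […] and 2 μM forskolin. cAMP measured by HTRF against a cAMP standard curve as inhibition of forskolin-driven production. EC50 from variable-slope sigmoidal fit.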

Sequence of human APJ receptor (P35414 whole entry): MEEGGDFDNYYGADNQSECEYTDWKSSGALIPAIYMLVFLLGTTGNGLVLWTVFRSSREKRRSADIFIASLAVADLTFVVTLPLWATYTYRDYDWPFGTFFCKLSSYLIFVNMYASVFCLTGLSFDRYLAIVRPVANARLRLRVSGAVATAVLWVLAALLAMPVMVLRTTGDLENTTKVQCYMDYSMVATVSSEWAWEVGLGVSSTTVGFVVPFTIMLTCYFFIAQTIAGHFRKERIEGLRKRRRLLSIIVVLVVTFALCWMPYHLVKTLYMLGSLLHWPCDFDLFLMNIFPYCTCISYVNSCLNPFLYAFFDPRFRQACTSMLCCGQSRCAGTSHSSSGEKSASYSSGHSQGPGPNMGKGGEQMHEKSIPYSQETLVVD

CCCCc1nc(O)c(S(=O)(=O)c2ccc(Br)cc2)c(=O)n1[C@@H](C)c1ccccc1OC [Example 238, 5-(4-bromobenzenesulfonyl)-2-butyl-6-hydroxy-3-[(1S)-1-(2-methoxyphenyl)ethyl]-3,4-dihydropyrimidin-4-one]
EC50: 100 to 300 nM

CCCCc1nc(=O)c(S(=O)(=O)c2ccc(-c3ccnc(F)c3C)cc2)c(O)n1[C@@H](C)c1ccccc1OC [Example 239, 2-butyl-5-[4-(2-fluoro-3-methylpyridin-4-yl)benzenesulfonyl]-6-hydroxy-1-[(1S)-1-(2-methoxyphenyl)ethyl]-1,4-dihydropyrimidin-4-one]
EC50: 0.01 to 10 nM

CCCCc1nc(=O)c(S(=O)(=O)c2ccc(-c3ccc(F)nc3C)cc2)c(O)n1[C@@H](C)c1ccccc1OC [Example 240, 2-butyl-5-[4-(6-fluoro-2-methylpyridin-3-yl)benzenesulfonyl]-6-hydroxy-1-[(1S)-1-(2-methoxyphenyl)ethyl]-1,4-dihydropyrimidin-4-one]
EC50: 0.01 to 10 nM

CCCCc1nc(=O)c(S(=O)(=O)c2ccc(-c3cncc(F)c3)cc2)c(O)n1[C@@H](C)c1ccc(OC)cc1 [Example 241, 2-butyl-5-[4-(5-fluoropyridin-3-yl)benzenesulfonyl]-6-hydroxy-1-[(1S)-1-(4-methoxyphenyl)ethyl]-1,4-dihydropyrimidin-4-one]
EC50: 0.01 to 10 nM

CCCCCc1nc(=O)c(S(=O)(=O)c2ccc(-c3ccnc(F)c3C)cc2)c(O)n1[C@@H](COC)c1ccccc1 [Example 242, 5-[4-(2-fluoro-3-methylpyridin-4-yl)benzenesulfonyl]-6-hydroxy-1-[(1R)-2-methoxy-1-phenylethyl]-2-pentyl-1,4-dihydropyrimidin-4-one]
EC50: 0.01 to 10 nM

CCCCc1nc(=O)c(S(=O)(=O)c2ccc(-c3ccnc(F)c3C)cc2)c(O)n1[C@H]1CCCc2ccccc21 [Example 243, 2-butyl-5-[4-(2-fluoro-3-methylpyridin-4-yl)benzenesulfonyl]-6-hydroxy-1-[(1S)-1,2,3,4-tetrahydronaphthalen-1-yl]-1,4-dihydropyrimidin-4-one]
EC50: 0.01 to 10 nM

CCCCc1nc(=O)c(S(=O)(=O)c2ccc(-c3ccnc(F)c3C)cc2)c(O)n1[C@@H](C)c1ccc(OC)cc1 [Example 244, 2-butyl-5-[4-(2-fluoro-3-methylpyridin-4-yl)benzenesulfonyl]-6-hydroxy-1-[(1S)-1-(4-methoxyphenyl)ethyl]-1,4-dihydropyrimidin-4-one]
EC50: 0.01 to 10 nM

CCCCCc1nc(=O)c(S(=O)(=O)c2ccc(-c3ccncc3C)cc2)c(O)n1[C@@H](COC)c1ccccc1 [Example 245, 6-hydroxy-1-[(1R)-2-methoxy-1-phenylethyl]-5-[4-(3-methylpyridin-4-yl)benzenesulfonyl]-2-pentyl-1,4-dihydropyrimidin-4-one]
EC50: 0.01 to 10 nM

CCCCc1nc(O)c(S(=O)(=O)c2ccc(Br)cc2)c(=O)n1[C@@H](C)c1ccc(OC)cc1 [Example 246, 5-(4-bromobenzenesulfonyl)-2-butyl-6-hydroxy-3-[(1S)-1-(4-methoxyphenyl)ethyl]-3,4-dihydropyrimidin-4-one]
EC50: 0.01 to 10 nM

CCCCCc1nc(=O)c(S(=O)(=O)c2ccc(Br)cc2)c(O)n1[C@@H](COC)c1ccccc1 [Example 247, 5-(4-bromobenzenesulfonyl)-6-hydroxy-3-[(1R)-2-methoxy-1-phenylethyl]-2-pentyl-3,4-dihydropyrimidin-4-one]
EC50: 10 to 100 nM

CCCCCc1nc(=O)c(S(=O)(=O)c2ccc(-c3cncc(F)c3)cc2)c(O)n1[C@@H](COC)c1ccccc1 [Example 248, 5-[4-(5-fluoropyridin-3-yl)benzenesulfonyl]-6-hydroxy-1-[(1R)-2-methoxy-1-phenylethyl]-2-pentyl-1,4-dihydropyrimidin-4-one]
EC50: 0.01 to 10 nM

CCCCCc1nc(=O)c(S(=O)(=O)c2ccc(-c3cccnc3C)cc2)c(O)n1[C@@H](COC)c1ccccc1 [Example 249, 6-hydroxy-1-[(1R)-2-methoxy-1-phenylethyl]-5-[4-(2-methylpyridin-3-yl)benzenesulfonyl]-2-pentyl-1,4-dihydropyrimidin-4-one]
EC50: 0.01 to 10 nM

CCCCCc1nc(=O)c(S(=O)(=O)c2ccc(-c3ccc(F)nc3C)cc2)c(O)n1[C@@H](COC)c1ccccc1 [Example 250, 5-[4-(6-fluoro-2-methylpyridin-3-yl)benzenesulfonyl]-6-hydroxy-1-[(1R)-2-methoxy-1-phenylethyl]-2-pentyl-1,4-dihydropyrimidin-4-one]
EC50: 0.01 to 10 nM

CCCCc1nc(=O)c(S(=O)(=O)c2ccc(-c3ccncc3C)cc2)c(O)n1[C@@H](COC)c1cccc(C#N)c1 [Example 251, 3-[(1R)-1-{2-butyl-6-hydroxy-5-[4-[3-methylpyridin-4-yl)benzenesulfonyl]-4-oxo-1,4-dihydropyrimidin-1-yl}-2-methoxyethyl] benzonitrile]
EC50: 0.01 to 10 nM

CCCCc1nc(=O)c(S(=O)(=O)c2ccc(-c3ccncc3C)cc2)c(O)n1[C@@H](CC)c1ccc2c(c1)OCO2 [Example 252, 1-[(1S)-1-(2H-1,3-benzodioxol-5-yl)propyl]-2-butyl-6-hydroxy-5-[4-(3-methylpyridin-4-yl)benzenesulfonyl]-1,4-dihydropyrimidin-4-one]
EC50: 0.01 to 10 nM

CCCCc1nc(=O)c(S(=O)(=O)c2ccc(-c3ccnc(F)c3C)cc2)c(O)n1[C@@H](COC)c1cccc(C#N)c1 [Example 253, 3-[(1R)-1-{2-butyl-5-[4-(2-fluoro-3-methylpyridin-4-yl)benzenesulfonyl]-6-hydroxy-4-oxo-1,4-dihydropyrimidin-1-yl}-2-methoxyethyl] benzonitrile]
EC50: 0.01 to 10 nM

CCCCc1nc(O)c(S(=O)(=O)c2ccc(Br)cc2)c(=O)n1[C@H](CC)c1cccc2c1OCO2 [Example 254, 3-[(1R)-1-(2H-1,3-benzodioxol-4-yl)propyl]-5-(4-bromobenzenesulfonyl)-2-butyl-6-hydroxy-3,4-dihydropyrimidin-4-one]
EC50: 10 to 100 nM

CCCCc1nc(=O)c(S(=O)(=O)c2ccc(-c3cncc(F)c3)cc2)c(O)n1[C@H](CC)c1cccc2c1OCO2 [Example 255, 1-[(1R)-1-(2H-1,3-benzodioxol-4-yl)propyl]-2-butyl-5-[4-(5-fluoropyridin-3-yl)benzenesulfonyl]-6-hydroxy-1,4-dihydropyrimidin-4-one]
EC50: 0.01 to 10 nM

CCCCc1nc(=O)c(S(=O)(=O)c2ccc(-c3ccncc3C)cc2)c(O)n1[C@@H](CC)c1cccc2c1OCO2 [Example 256, 1-[(1S)-1-(2H-1,3-benzodioxol-4-yl)propyl]-2-butyl-6-hydroxy-5-[4-(3-methylpyridin-4-yl)benzenesulfonyl]-1,4-dihydropyrimidin-4-one]
EC50: 0.01 to 10 nM

CCCCc1nc(=O)c(S(=O)(=O)c2ccc(-c3ccnc(F)c3C)cc2)c(O)n1[C@@H](CC)c1cccc2c1OCO2 [Example 257, 1-[(1S)-1-(2H-1,3-benzodioxol-4-yl)propyl]-2-butyl-5-[4-(2-fluoro-3-methylpyridin-4-yl)benzenesulfonyl]-6-hydroxy-1,4-dihydropyrimidin-4-one]
EC50: 0.01 to 10 nM

CCCCc1nc(=O)c(S(=O)(=O)c2ccc(-c3cncc(F)c3)cc2)c(O)n1[C@@H](CC)c1cccc2c1OCO2 [Example 258, 1-[(1S)-1-(2H-1,3-benzodioxol-4-yl)propyl]-2-butyl-5-[4-(5-fluoropyridin-3-yl)benzenesulfonyl]-6-hydroxy-1,4-dihydropyrimidin-4-one]
EC50: 0.01 to 10 nM
